Values quoted from earlier work, collected in patent US20250186525A1, “DECAFFEINATED YERBA MATE EXTRACT, ANTI-OBESITY COMPOSITION, DECAFFEINATION METHOD AND METHOD FOR THE PRODUCTION OF A YERBA MATE EXTRACT” (priority 2022, published 2025).

How the values were obtained:
mice = conditions: isolated from a hot water extract of yerba mate
fat accumulation = conditions: cell and animal tests

Which food intake (mice) does the source give for O=C(/C=C/c1ccc(O)c(O)c1)O[C@@H]1CC(O)(C(=O)O)C[C@@H](OC(=O)/C=C/c2ccc(O)c(O)c2)C1O (stereo partly shown) [3,5-dicaffeoylquinic acid] here?
Its food intake is “significantly reduces”.

Which “inhibitory effect on fat accumulation” value (fat accumulation) does the source give for Cn1c(=O)c2c(ncn2C)n(C)c1=O [caffeine] here?
The value was “showed an inhibitory effect”.

What about the “gene expression of fatty acid synthase” value (fatty acid synthase) of the same molecule?
Its value is “reduced”.

For O=C(/C=C/c1ccc(O)c(O)c1)O[C@@H]1C[C@](O)(C(=O)O)C[C@@H](O)[C@H]1O [chlorogenic acid], which food intake (mice) is on record?
The food intake was “significantly reduces”.
